Results from patent US4088772A, “Methanodibenzocycloheptapyrroles” (E. I. Du Pont de Nemours and Company, priority 1975, dated 1978).
Counter-ions that a name gives are not always drawn. Like-named read-outs stand apart in the source and are kept apart here.

How the values were obtained:
in vivo = conditions: mouse, in vivo, po
female white mice = assay: animal or person; conditions: Mus musculus, po, oral, mice
[1] = test system: phenylquinone-induced writhing; assay: Phenylquinone writhing test (analgesia); format: in vivo, mouse (Carworth CF1 S female); conditions: Mus musculus
From the text: This mouse test is predictive of analgesic response in humans. [E. Siegmund, R. Cadmus and G. Lee, Proc. Soc.
ED50 values were obtained graphically from the data.

[2] = read-out: Catatonia ED50, Table 1
[3] = read-out: Exploratory Loss Visual ED50, Table 1
[4] = read-out: Muscle Tone ED50, Table 1
[5] = read-out: Reflexes Grip ED50, Table 1
[6] = read-out: Reflexes Lift ED50, Table 1
[7] = read-out: Reflexes Pinna ED50, Table 1
[8] = read-out: Catatonia ED50, Table III
[9] = read-out: Exploratory Loss Visual ED50, Table III
[10] = read-out: Muscle Tone ED50, Table III
[11] = read-out: Ptosis ED50, Table III
[12] = read-out: Reflexes Grip ED50, Table III
[13] = read-out: Reflexes Lift ED50, Table III
[14] = read-out: Reflexes Pinna ED50, Table III

Row | SMILES | LD50 at 24 h (in vivo) | ED50 (in vivo; Tremors ED50, Table 1, mice) | ED50 (female white mice; [2]) | ED50 (female white mice; [3]) | ED50 (female white mice; [4]) | ED50 (female white mice; read-out: Ptosis ED50, Table 1) | ED50 (female white mice; [5]) | ED50 (female white mice; [6]) | ED50 (female white mice; [7]) | ED50 ([1]; Table 1, oral, mice) | ED50 (female white mice; [8]) | ED50 (female white mice; [9]) | ED50 (female white mice; [10]) | ED50 (female white mice; [11]) | ED50 (female white mice; [12]) | ED50 (female white mice; [13]) | ED50 (female white mice; [14]) | ED50 ([1]; po, Table III, mice) | ED50 (in vivo) | ED50 ([1]; po, Table 1, mice)
1 | c1ccc2c(c1)[C@@H]1C[C@@]3(CN(C4CCC4)C[C@H]23)c2ccccc21 (relative stereo) [Example 47, 2-Cyclobutyl-2,3,8,12b-tetrahydro-1H-3a,8-methanodibenzo[3,4:6,7]cyclohepta[1,2-c]pyrrole] | > 324 mg/kg | > 324 mg/kg | 60 mg/kg | 60 mg/kg | 60 mg/kg | 36 mg/kg | 200 mg/kg | 60 mg/kg | 36 mg/kg | 9.6 mg/kg |  |  |  |  |  |  |  |  |  | 
2 | Clc1ccc2c(c1)[C@]13C[C@H]2c2ccccc2[C@H]1CN(CC1CCCC1)C3 (relative stereo) [Example 76, 5-Chloro-2-cyclopentylmethyl-2,3,8,12b-tetrahydro-1H-3a,8-methanodibezno[3,4:6,7]cyclohepta[1,2-c]pyrrole Hydrochloride] | 300 mg/kg |  |  |  |  |  |  |  |  |  | 12 mg/kg | 7 mg/kg | 12 mg/kg | 7 mg/kg | > 324 mg/kg | 20 mg/kg | 20 mg/kg | < 130 mg/kg |  | 
3 | c1ccc2c(c1)C1CC3(CN(CCCC4CCCCC4)CC23)c2ccccc21 (stereo not shown) [Example 30, 2-(3-Cyclohexylpropyl)-2,3,8,12b-tetrahydro-1H-3a,8-methanodibenzo[3,4:6,7]cyclohepta[1,2-c]pyrrole] | > 324 mg/kg |  | 12 mg/kg | 4 mg/kg |  | 4 mg/kg | 200 mg/kg | 12 mg/kg |  |  |  |  |  |  |  |  |  |  | > 324 mg/kg | 7 mg/kg
4 | c1ccc(OCCN2C[C@@H]3c4ccccc4[C@@H]4C[C@@]3(C2)c2ccccc24)cc1 (relative stereo) [Example 40, 2-(2-Phenoxyethyl)-2,3,8,12b-tetrahydro-1H-3a,8-methanodibenzo[3,4:6,7]cyclohepta[1,2-c]pyrrole] | > 324 mg/kg |  | 12 mg/kg | 60 mg/kg | 20 mg/kg | 7 mg/kg | > 324 mg/kg | 20 mg/kg | 12 mg/kg |  |  |  |  |  |  |  |  |  | > 324 mg/kg | 5.3 mg/kg
5 | C#CCN1CC2c3ccccc3C3CC2(C1)c1ccccc13 (stereo not shown) [Example 18, 2-Propargyl-2,3,8,12b-tetrahydro-1H-3a,8-methanodibenzo[3,4:6,7]cyclohepta[1,2-c]pyrrole] | > 324 mg/kg | > 324 mg/kg | 100 mg/kg | 200 mg/kg | 300 mg/kg | 200 mg/kg | > 324 mg/kg | 200 mg/kg | > 324 mg/kg | > 135 mg/kg |  |  |  |  |  |  |  |  |  | 
6 | CCN1CC2c3ccccc3C3CC2(C1)c1ccccc13 (stereo not shown) [Example 12, 2-Ethyl-2,3,8,12b-tetrahydro-1H-3a,8-methanodibenzo[3,4:6,7]cyclohepta[1,2-c]pyrrole] | 200 mg/kg | 200 mg/kg | 12 mg/kg | 20 mg/kg | 36 mg/kg | 12 mg/kg | 100 mg/kg | 12 mg/kg | 12 mg/kg | 4.3 mg/kg |  |  |  |  |  |  |  |  |  | 
7 | CC(O)c1ccc2c(c1)[C@]13C[C@H]2c2ccccc2[C@H]1CN(CC1CCCC1)C3 (stereo partly drawn) [Example 67, 5-(α-Hydroxyethyl)-2-cyclopentylmethyl-2,3,8,12b-tetrahydro-1H-3a,8-methanodibenzo[3,4:6,7]cyclohepta[1,2-c]-pyrrole Hydrochloride] | > 450 mg/kg |  |  |  |  |  |  |  |  |  | 5 mg/kg | 5 mg/kg | 6 mg/kg | 3.6 mg/kg | 187 mg/kg | 21 mg/kg | 5.6 mg/kg | 3.4 mg/kg |  | 
8 | C1=C[C@@H]2C[C@H]1C[C@@H]2CN1C[C@@H]2c3ccccc3[C@@H]3C[C@@]2(C1)c1ccccc13 (relative stereo) [Example 38, 2-(2-Endo-bicyclo[2.2.1]hept-5-enylmethyl)-2,3,8,12b-tetrahydro-1H-3a,8-methanodibenzo[3,4:6,7]cyclohepta[1,2-c]pyrrole] | > 324 mg/kg |  | 100 mg/kg | 200 mg/kg | 200 mg/kg | 60 mg/kg | > 324 mg/kg | 200 mg/kg | > 324 mg/kg |  |  |  |  |  |  |  |  |  | > 324 mg/kg | 31 mg/kg
9 | Nc1ccc2c(c1)[C@]13C[C@H]2c2ccccc2[C@H]1CN(CC1CCCC1)C3 (relative stereo) [Example 64, 5-Amino-2-cyclopentylmethyl-2,3,8,12b-tetrahydro-1H-3a, 8-methanodibenzo[3,4:6,7]cyclohepta[1,2-c]pyrrole Hydrochloride] | > 324 mg/kg |  |  |  |  |  |  |  |  |  | < 4 mg/kg | < 4 mg/kg | < 4 mg/kg | < 4 mg/kg | 200 mg/kg | 12 mg/kg | 7 mg/kg | 6.2 mg/kg |  | 
10 | C1=CC(CCN2CC3c4ccccc4C4CC3(C2)c2ccccc24)CC1 (stereo not shown) [Example 23, 2-(2-Cyclopent-2-enylethyl)-2,3,8,12b-tetrahydro-1H-3a,8-methanodibenzo[3,4:6,7]cyclohepta[1,2-c]pyrrole] | > 324 mg/kg |  | 37 mg/kg | 57 mg/kg | 37 mg/kg | 46 mg/kg | 265 mg/kg | 88 mg/kg | 62 mg/kg |  |  |  |  |  |  |  |  |  | > 324 mg/kg | 15 mg/kg
11 | CC(=O)c1ccc2c(c1)[C@]13C[C@H]2c2ccccc2[C@H]1CN(CC1CCCC1)C3 (relative stereo) [Example 66, 5-Acetyl-2-cyclopentylmethyl-2,3,8,12b-tetrahydro-1H3a,8-methanodibenzo[3,4:6,7]cyclohepta[1,2-c]pyrrole Hydrochloride] | > 324 mg/kg |  |  |  |  |  |  |  |  |  | 12 mg/kg | 7 mg/kg | 12 mg/kg | < 4 mg/kg | 300 mg/kg | 20 mg/kg | 12 mg/kg | 3.1 mg/kg |  | 
12 | c1ccc2c(c1)[C@@H]1C[C@@]3(CN(C[C@H]4C[C@H]5CC[C@@H]4C5)C[C@H]23)c2ccccc21 (relative stereo) [Example 36, 2-(2-Endo-bicyclo[2.2.1]heptylmethyl)-2,3,8,12b-tetrahydro-1H-3a,8-methanodibenzo[3,4:6,7]cyclohepta[1,2-c]pyrrole] | > 324 mg/kg |  | 60 mg/kg | 60 mg/kg | 60 mg/kg | 20 mg/kg | > 324 mg/kg | 60 mg/kg | 100 mg/kg |  |  |  |  |  |  |  |  |  | > 324 mg/kg | 9.8 mg/kg
13 | CCCCN1CC2c3ccccc3C3CC2(C1)c1ccccc13 (stereo not shown) [Example 13, 2-n-Butyl-2,3,8,12b-tetrahydro-1H-3a,8-methanodibenzo[3,4:6,7]cyclohepta[1,2-c]pyrrole] | > 324 mg/kg | 300 mg/kg | 12 mg/kg | 12 mg/kg | 12 mg/kg | 7 mg/kg | 200 mg/kg | 7 mg/kg | ≤ 4 mg/kg | 10.5 mg/kg |  |  |  |  |  |  |  |  |  | 
14 | COC(=O)c1ccc2c(c1)[C@]13C[C@H]2c2ccccc2[C@H]1CN(CC1CCCC1)C3 (relative stereo) [Example 74, 2-Cyclopentylmethyl-2,3,8,12b-tetrahydro-1H-3a,8-methanodibenzo[3,4:6,7]cyclohepta[1,2-c]pyrrole-5-carboxylic Acid Hydrochloride, Methyl Ester] | > 324 mg/kg |  |  |  |  |  |  |  |  |  | 36 mg/kg | 36 mg/kg | 36 mg/kg | < 4 mg/kg | > 324 mg/kg | 36 mg/kg | 7 mg/kg | 11 mg/kg |  | 
